What all share (test): cell-based
The target in assay [1] is T1, hNav1.3 (Homo sapiens, UniProt Q9NY46). Format: cell-based. The following applies: Nav1.3 Use IC50.
The target of assay [2] is T2, hNav1.7 (Homo sapiens, UniProt Q15858). Format: cell-based.
Assay [3] addresses T3, hNav1.5 (Homo sapiens, UniProt Q14524).
Assay [4] has as its target T1, hNav1.3. The following applies: IonWorks Quattro, read-out: IWQ Use Nav1.3. On the technique in general: The patch-clamp technique gives a direct electrical read-out from membranes.
The target in assay [5] is T2, hNav1.7. To be noted: Nav1.7 Use IC50.
Assay [6] concerns the target T3, hNav1.5. This is another data set of the same source.
Where [7] appears, read: IonWorks Quattro, clamped to −110 mV, depolarized to −10 mV, 5 min after compound, n=2, read-out: IWQ Use Nav1.7.
[8] abbreviates: clamped to −110 mV, depolarized to −10 mV, 5 min after compound, n=2.
[9] abbreviates: IonWorks Quattro, use-dependent block, hNav1.7, read-out: IWQ Use Nav1.7.
[10] abbreviates: IonWorks Quattro, use-dependent block, hNav1.5, read-out: IWQ Use Nav1.5.
Setting [11] is: IonWorks Quattro, clamped to −110 mV, depolarized to −10 mV, 5 min after compound, n=2, read-out: IWQ Use Nav1.5.

Where two headings read alike, the source gives them in different places. Positions of bridges follow the written chain, without caps; N, C: chain ends. Non-standard residues stand in square brackets, D forms with d. Residues, ends and D or L forms follow the SMILES beside them. Arg(Me2s) = CN=C(NC)NCCC[C@H](N)C(=O)O

T3 sequence (Q14524 whole entry, looked up): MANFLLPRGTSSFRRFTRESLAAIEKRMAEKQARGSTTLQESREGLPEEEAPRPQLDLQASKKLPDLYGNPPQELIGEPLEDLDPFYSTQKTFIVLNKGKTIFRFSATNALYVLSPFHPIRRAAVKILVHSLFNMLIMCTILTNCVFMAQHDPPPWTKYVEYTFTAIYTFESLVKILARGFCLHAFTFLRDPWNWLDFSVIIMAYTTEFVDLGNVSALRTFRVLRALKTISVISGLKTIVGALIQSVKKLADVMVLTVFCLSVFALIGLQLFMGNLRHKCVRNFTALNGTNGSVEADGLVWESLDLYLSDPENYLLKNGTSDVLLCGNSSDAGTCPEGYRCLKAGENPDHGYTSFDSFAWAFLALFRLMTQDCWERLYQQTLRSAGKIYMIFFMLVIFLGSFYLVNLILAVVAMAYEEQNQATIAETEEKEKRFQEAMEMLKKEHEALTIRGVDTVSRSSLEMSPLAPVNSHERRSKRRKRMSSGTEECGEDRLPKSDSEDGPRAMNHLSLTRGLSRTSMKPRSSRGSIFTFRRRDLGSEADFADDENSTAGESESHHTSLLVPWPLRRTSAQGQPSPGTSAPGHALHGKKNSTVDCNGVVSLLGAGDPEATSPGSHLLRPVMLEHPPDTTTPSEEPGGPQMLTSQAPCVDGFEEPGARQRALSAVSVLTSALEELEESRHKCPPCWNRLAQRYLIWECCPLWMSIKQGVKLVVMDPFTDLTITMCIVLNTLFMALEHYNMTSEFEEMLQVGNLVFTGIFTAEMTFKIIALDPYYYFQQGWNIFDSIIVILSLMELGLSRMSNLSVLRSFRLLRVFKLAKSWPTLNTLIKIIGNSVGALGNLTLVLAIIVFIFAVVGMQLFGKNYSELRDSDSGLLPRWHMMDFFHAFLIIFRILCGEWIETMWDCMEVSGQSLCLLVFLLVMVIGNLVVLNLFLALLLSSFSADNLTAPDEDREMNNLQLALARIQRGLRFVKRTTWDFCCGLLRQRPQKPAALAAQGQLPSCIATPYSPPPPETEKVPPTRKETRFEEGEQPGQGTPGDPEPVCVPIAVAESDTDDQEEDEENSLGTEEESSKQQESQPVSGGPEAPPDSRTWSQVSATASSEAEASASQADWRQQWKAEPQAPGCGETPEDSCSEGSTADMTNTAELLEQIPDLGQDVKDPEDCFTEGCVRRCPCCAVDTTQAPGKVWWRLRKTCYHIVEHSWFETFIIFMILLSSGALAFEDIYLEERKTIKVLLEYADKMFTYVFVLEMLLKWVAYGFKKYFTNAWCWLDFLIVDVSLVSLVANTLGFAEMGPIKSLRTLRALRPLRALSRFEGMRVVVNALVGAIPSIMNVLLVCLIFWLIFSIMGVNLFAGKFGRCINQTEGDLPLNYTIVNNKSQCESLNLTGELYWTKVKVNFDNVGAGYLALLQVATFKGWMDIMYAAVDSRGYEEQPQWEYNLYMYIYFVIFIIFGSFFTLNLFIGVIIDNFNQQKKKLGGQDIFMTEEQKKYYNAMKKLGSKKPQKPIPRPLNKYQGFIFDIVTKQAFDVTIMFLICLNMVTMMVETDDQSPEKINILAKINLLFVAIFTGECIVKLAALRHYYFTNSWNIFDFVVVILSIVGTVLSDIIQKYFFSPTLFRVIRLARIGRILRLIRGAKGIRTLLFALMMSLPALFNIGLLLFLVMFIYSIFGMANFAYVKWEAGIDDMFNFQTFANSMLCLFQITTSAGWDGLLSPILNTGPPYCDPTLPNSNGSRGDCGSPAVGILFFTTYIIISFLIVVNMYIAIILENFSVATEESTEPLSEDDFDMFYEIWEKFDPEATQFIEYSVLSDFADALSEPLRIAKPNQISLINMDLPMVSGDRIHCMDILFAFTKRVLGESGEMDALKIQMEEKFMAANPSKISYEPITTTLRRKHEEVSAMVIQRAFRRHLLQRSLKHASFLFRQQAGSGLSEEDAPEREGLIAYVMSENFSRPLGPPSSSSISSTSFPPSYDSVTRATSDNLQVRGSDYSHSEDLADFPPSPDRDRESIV
T1 sequence (Q9NY46 whole entry, looked up): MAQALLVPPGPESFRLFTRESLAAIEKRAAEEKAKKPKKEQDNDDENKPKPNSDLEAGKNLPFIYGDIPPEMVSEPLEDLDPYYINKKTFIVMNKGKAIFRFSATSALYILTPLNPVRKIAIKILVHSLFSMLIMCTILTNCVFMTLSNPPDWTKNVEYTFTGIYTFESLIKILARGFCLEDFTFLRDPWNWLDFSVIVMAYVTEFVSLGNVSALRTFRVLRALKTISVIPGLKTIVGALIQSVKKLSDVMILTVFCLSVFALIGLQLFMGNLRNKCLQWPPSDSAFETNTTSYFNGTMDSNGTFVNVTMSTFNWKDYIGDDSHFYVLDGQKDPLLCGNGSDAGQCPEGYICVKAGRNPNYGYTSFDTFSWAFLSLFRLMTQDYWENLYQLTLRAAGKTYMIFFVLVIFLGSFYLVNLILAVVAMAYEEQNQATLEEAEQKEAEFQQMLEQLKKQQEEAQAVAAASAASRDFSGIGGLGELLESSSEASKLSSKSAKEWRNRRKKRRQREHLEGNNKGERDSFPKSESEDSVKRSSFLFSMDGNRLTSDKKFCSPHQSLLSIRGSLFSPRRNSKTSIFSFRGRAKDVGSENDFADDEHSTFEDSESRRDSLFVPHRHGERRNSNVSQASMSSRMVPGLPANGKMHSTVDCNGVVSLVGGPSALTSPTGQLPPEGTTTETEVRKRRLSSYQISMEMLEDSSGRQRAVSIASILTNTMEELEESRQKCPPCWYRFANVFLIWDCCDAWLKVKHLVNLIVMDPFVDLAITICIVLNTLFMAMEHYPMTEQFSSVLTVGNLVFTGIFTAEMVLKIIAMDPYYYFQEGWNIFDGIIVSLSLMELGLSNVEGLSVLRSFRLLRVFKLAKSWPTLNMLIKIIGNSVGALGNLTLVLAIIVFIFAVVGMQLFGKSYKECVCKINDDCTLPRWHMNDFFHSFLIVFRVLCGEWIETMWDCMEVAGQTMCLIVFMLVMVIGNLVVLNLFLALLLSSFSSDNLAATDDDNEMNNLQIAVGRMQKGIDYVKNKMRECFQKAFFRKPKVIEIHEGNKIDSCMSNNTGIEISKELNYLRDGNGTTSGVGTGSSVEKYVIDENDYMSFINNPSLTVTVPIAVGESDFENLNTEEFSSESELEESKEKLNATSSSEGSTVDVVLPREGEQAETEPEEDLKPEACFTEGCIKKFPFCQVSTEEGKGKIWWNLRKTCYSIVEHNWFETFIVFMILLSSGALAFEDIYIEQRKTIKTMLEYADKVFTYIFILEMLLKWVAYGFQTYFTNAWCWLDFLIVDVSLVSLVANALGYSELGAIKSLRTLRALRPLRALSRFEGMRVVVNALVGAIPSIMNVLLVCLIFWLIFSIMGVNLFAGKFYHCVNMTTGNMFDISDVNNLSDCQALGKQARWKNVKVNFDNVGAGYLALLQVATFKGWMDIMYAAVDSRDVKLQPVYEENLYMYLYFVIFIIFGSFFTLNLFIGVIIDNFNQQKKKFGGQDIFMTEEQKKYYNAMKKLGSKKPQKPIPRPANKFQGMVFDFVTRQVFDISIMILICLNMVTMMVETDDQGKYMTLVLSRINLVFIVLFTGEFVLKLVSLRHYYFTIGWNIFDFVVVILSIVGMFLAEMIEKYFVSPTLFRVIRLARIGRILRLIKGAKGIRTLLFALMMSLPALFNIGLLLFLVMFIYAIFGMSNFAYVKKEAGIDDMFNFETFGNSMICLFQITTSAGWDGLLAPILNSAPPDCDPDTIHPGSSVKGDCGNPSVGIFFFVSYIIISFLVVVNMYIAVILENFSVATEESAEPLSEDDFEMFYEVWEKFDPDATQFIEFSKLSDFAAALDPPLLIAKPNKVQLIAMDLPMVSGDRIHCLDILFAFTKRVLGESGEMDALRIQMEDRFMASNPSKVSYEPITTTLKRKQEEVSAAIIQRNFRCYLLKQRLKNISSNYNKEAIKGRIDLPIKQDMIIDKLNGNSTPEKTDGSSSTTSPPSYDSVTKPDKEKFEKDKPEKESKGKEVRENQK

Take `CC[C@H](C)[C@@H]1NC(=O)[C@@H]2CSSC[C@@H]3NC(=O)[C@H](C(C)C)NC(=O)[C@H](CC(C)C)NC(=O)[C@H](CC(N)=O)NC(=O)[C@@H]4CCCN4C(=O)[C@H](CCCNC(=N)N)NC(=O)[C@H](CSSC[C@H](NC(=O)[C@@H](N)CC(=O)O)C(=O)N[C@@H](CC(C)C)C(=O)NCC(=O)N[C@@H](C)C(=O)N[C@@H](Cc4ccccc4)C(=O)N[C@@H](CCCNC(=N)N)C(=O)N[C@@H](CCCCN)C(=O)N2)NC(=O)[C@H](CSSC[C@@H](C(=O)N[C@@H](CCCCN)C(=O)N[C@@H](Cc2ccc(O)cc2)C(=O)N[C@H](C(=O)N[C@@H](Cc2ccccc2)C(N)=O)C(C)C)NC(=O)[C@H](Cc2c[nH]c4ccccc24)NC(=O)[C@H](CCCCN)NC(=O)[C@H](Cc2cnc[nH]2)NC(=O)[C@H](CC(C)C)NC(=O)[C@H](CCCNC(=N)N)NC(=O)[C@H](CO)NC3=O)NC(=O)[C@H](CCCCN)NC(=O)[C@H](CC(=O)O)NC(=O)[C@H](CC(N)=O)NC(=O)[C@H](CC(=O)O)NC(=O)[C@@H]2CCCN2C1=O` [[Ala5;Phe6;Leu26]GpTx-1(1-34)] (H-DCLGAFRKCIPDNDKCCRPNLVCSRLHKWCKYVF-NH2; disulfide 2-17, 9-23, 16-30): the IC50 against hNav1.3 [1] stood at 0.011 µM.

Turning to `CC[C@H](C)[C@@H]1NC(=O)[C@@H]2CSSC[C@@H]3NC(=O)[C@H](C(C)C)NC(=O)[C@H](CC(C)C)NC(=O)[C@H](CC(N)=O)NC(=O)[C@@H]4CCCN4C(=O)[C@H](CCCNC(=N)N)NC(=O)[C@H](CSSC[C@H](NC(=O)[C@@H](N)CC(=O)O)C(=O)N[C@@H](C)C(=O)NCC(=O)N[C@@H](Cc4ccccc4)C(=O)N[C@@H](CCSC)C(=O)N[C@@H](CCCNC(=N)N)C(=O)N[C@@H](CCCCN)C(=O)N2)NC(=O)[C@H](CSSC[C@@H](C(=O)N[C@@H](CCCCN)C(=O)N[C@@H](Cc2ccc(O)cc2)C(=O)N[C@H](C(=O)N[C@@H](Cc2ccccc2)C(N)=O)C(C)C)NC(=O)[C@H](Cc2c[nH]c4ccccc24)NC(=O)[C@H](CCCCN)NC(=O)[C@H](Cc2cnc[nH]2)NC(=O)[C@H]([C@@H](C)O)NC(=O)[C@H](CCCNC(=N)N)NC(=O)[C@H](CO)NC3=O)NC(=O)[C@H](CCCCN)NC(=O)[C@H](CC(=O)O)NC(=O)[C@H](CC(N)=O)NC(=O)[C@H](CC(=O)O)NC(=O)[C@@H]2CCCN2C1=O` [SEQ ID NO: 21] (H-DCAGFMRKCIPDNDKCCRPNLVCSRTHKWCKYVF-NH2; disulfide 2-17, 9-23, 16-30), the IC50 on hNav1.7 [2] (setting [7]) is 0.51 µM; at hNav1.5 [3] (IWQ Use Nav1.5) it was 19 µM; on hNav1.3 [4] (setting [8]), 0.1 µM; on hNav1.7 [5] it was 0.012 µM; against hNav1.5 [6], greater than 10 µM.

Regarding `CC[C@H](C)[C@@H]1NC(=O)[C@@H]2CSSC[C@@H]3NC(=O)[C@H](C(C)C)NC(=O)[C@H](CC(C)C)NC(=O)[C@H](CC(N)=O)NC(=O)[C@@H]4CCCN4C(=O)[C@H](CCCNC(=N)N)NC(=O)[C@H](CSSC[C@H](NC(=O)[C@@H](N)CC(=O)O)C(=O)N[C@@H](CC(C)C)C(=O)NCC(=O)N[C@@H](Cc4ccccc4)C(=O)N[C@@H](CCSC)C(=O)N[C@@H](CCCNC(=N)N)C(=O)N[C@@H](CCCNC(=NC)NC)C(=O)N2)NC(=O)[C@H](CSSC[C@@H](C(=O)N[C@@H](CCCCN)C(=O)N[C@@H](Cc2ccc(O)cc2)C(=O)N[C@H](C(=O)N[C@@H](Cc2ccccc2)C(N)=O)C(C)C)NC(=O)[C@H](Cc2c[nH]c4ccccc24)NC(=O)[C@H](CCCCN)NC(=O)[C@H](Cc2c[nH]cn2)NC(=O)[C@H]([C@@H](C)O)NC(=O)[C@H](CCCNC(=N)N)NC(=O)[C@H](CO)NC3=O)NC(=O)[C@H](CCCCN)NC(=O)[C@H](CC(=O)O)NC(=O)[C@H](CC(N)=O)NC(=O)[C@H](CC(=O)O)NC(=O)[C@@H]2CCCN2C1=O` [[SDMA8]GpTx-1(1-34)] (H-DCLGFMR[Arg(Me2s)]CIPDNDKCCRPNLVCSRTHKWCKYVF-NH2; disulfide 2-17, 9-23, 16-30), the IC50 is 0.2 µM on hNav1.7 [2] (setting [9]); 9.05 µM on hNav1.5 [3] (setting [10]); 0.2 µM at hNav1.3 [4] (use-dependent block, hNav1.3); 0.005 µM at hNav1.7 [5]; greater than 10 µM on hNav1.5 [6].

As for `CC[C@H](C)[C@@H]1NC(=O)[C@@H]2CSSC[C@@H]3NC(=O)[C@H](C(C)C)NC(=O)[C@H](CC(C)C)NC(=O)[C@H](CC(N)=O)NC(=O)[C@@H]4CCCN4C(=O)[C@H](CCCNC(=N)N)NC(=O)[C@H](CSSC[C@H](NC(=O)[C@@H](N)CC(=O)O)C(=O)N[C@@H](CC(C)C)C(=O)NCC(=O)N[C@@H](Cc4ccccc4)C(=O)N[C@@H](Cc4ccccn4)C(=O)N[C@@H](CCCNC(=N)N)C(=O)N[C@@H](CCCCN)C(=O)N2)NC(=O)[C@H](CSSC[C@@H](C(=O)N[C@@H](CCCCN)C(=O)N[C@@H](Cc2ccc(O)cc2)C(=O)N[C@H](C(=O)N[C@@H](Cc2ccccc2)C(N)=O)C(C)C)NC(=O)[C@H](Cc2c[nH]c4ccccc24)NC(=O)[C@H](CCCCN)NC(=O)[C@H](Cc2c[nH]cn2)NC(=O)[C@H]([C@@H](C)O)NC(=O)[C@H](CCCNC(=N)N)NC(=O)[C@H](CO)NC3=O)NC(=O)[C@H](CCCCN)NC(=O)[C@H](CC(=O)O)NC(=O)[C@H](CC(N)=O)NC(=O)[C@H](CC(=O)O)NC(=O)[C@@H]2CCCN2C1=O` [SEQ ID NO: 294], the IC50 at hNav1.7 [2] (setting [7]) amounted to 0.37 µM; at hNav1.5 [3] (setting [11]) it was 9.11 µM; on hNav1.3 [4] (setting [8]), 0.09 µM; against hNav1.7 [5], 0.042 µM; on hNav1.5 [6] it was 10 µM.

For the compound `CC[C@H](C)[C@@H]1NC(=O)[C@@H]2CSSC[C@@H]3NC(=O)[C@H](C(C)C)NC(=O)[C@H](CC(C)C)NC(=O)[C@H](CC(N)=O)NC(=O)[C@@H]4CCCN4C(=O)[C@H](CCCNC(=N)N)NC(=O)[C@H](CSSC[C@H](NC(=O)[C@H](CC(=O)O)NC(=O)[C@H](C)N)C(=O)N[C@@H](CC(C)C)C(=O)NCC(=O)N[C@@H](Cc4ccccc4)C(=O)N[C@@H](CCSC)C(=O)N[C@@H](CCCNC(=N)N)C(=O)N[C@@H](CCCCN)C(=O)N2)NC(=O)[C@H](CSSC[C@@H](C(=O)N[C@@H](CCCCN)C(=O)N[C@@H](Cc2ccc(O)cc2)C(=O)N[C@H](C(=O)N[C@@H](Cc2ccccc2)C(N)=O)C(C)C)NC(=O)[C@H](Cc2c[nH]c4ccccc24)NC(=O)[C@H](CCCCN)NC(=O)[C@H](Cc2c[nH]cn2)NC(=O)[C@H]([C@@H](C)O)NC(=O)[C@H](CCCNC(=N)N)NC(=O)[C@H](CO)NC3=O)NC(=O)[C@H](CCCCN)NC(=O)[C@H](CC(=O)O)NC(=O)[C@H](CC(N)=O)NC(=O)[C@H](CC(=O)O)NC(=O)[C@@H]2CCCN2C1=O` [SEQ ID NO: 100], the IC50 stood at 0.37 µM at hNav1.7 [2] (read-out: IWQ Use Nav1.7); 19.6 µM on hNav1.5 [3] (setting [11]); 0.32 µM at hNav1.3 [4] (setting [8]); 0.012 µM at hNav1.7 [5]; 10 µM at hNav1.5 [6].

For `CC[C@H](C)[C@@H]1NC(=O)[C@@H]2CSSC[C@@H]3NC(=O)[C@H](C(C)C)NC(=O)[C@H](CC(C)C)NC(=O)[C@H](CC(N)=O)NC(=O)[C@@H]4CCCN4C(=O)[C@H](CCCNC(=N)N)NC(=O)[C@H](CSSC[C@H](NC(=O)[C@@H](N)CC(=O)O)C(=O)N[C@@H](CC(C)C)C(=O)NCC(=O)N[C@@H](Cc4ccccc4)C(=O)N[C@@H](Cc4c[nH]c5ccccc45)C(=O)N[C@@H](CCCNC(=N)N)C(=O)N[C@@H](CCCCN)C(=O)N2)NC(=O)[C@H](CSSC[C@@H](C(=O)N[C@@H](CCCCN)C(=O)N[C@@H](Cc2ccc(O)cc2)C(=O)N[C@H](C(=O)N[C@@H](Cc2ccccc2)C(N)=O)C(C)C)NC(=O)[C@H](Cc2c[nH]c4ccccc24)NC(=O)[C@H](CCCCN)NC(=O)[C@H](Cc2cnc[nH]2)NC(=O)[C@H]([C@@H](C)O)NC(=O)[C@H](CCCNC(=N)N)NC(=O)[C@H](CO)NC3=O)NC(=O)[C@H](CCCCN)NC(=O)[C@H](CC(=O)O)NC(=O)[C@H](CC(N)=O)NC(=O)[C@H](CC(=O)O)NC(=O)[C@@H]2CCCN2C1=O` [SEQ ID NO: 170] (H-DCLGFWRKCIPDNDKCCRPNLVCSRTHKWCKYVF-NH2; disulfide 2-17, 9-23, 16-30), the IC50 on hNav1.7 [2] amounted to 0.013 µM; at hNav1.5 [3] (setting [11]), 3.58 µM; on hNav1.3 [4] (setting [8]), 0.002 µM; at hNav1.7 [5], 0.022 µM; on hNav1.5 [6] it was 3.67 µM.

As for `CC[C@H](C)[C@@H]1NC(=O)[C@@H]2CSSC[C@@H]3NC(=O)[C@H](C(C)C)NC(=O)[C@H](CC(C)C)NC(=O)[C@H](CC(N)=O)NC(=O)[C@@H]4CCCN4C(=O)[C@H](CCCNC(=N)N)NC(=O)[C@H](CSSC[C@H](NC(=O)[C@@H](N)CC(=O)O)C(=O)N[C@@H](CC(C)C)C(=O)NCC(=O)N[C@@H](Cc4ccccc4)C(=O)N[C@@H](CCSC)C(=O)N[C@@H](CCCNC(=NC)NC)C(=O)N[C@@H](CCCCN)C(=O)N2)NC(=O)[C@H](CSSC[C@@H](C(=O)N[C@@H](CCCCN)C(=O)N[C@@H](Cc2ccc(O)cc2)C(=O)N[C@H](C(=O)N[C@@H](Cc2ccccc2)C(N)=O)C(C)C)NC(=O)[C@H](Cc2c[nH]c4ccccc24)NC(=O)[C@H](CCCCN)NC(=O)[C@H](Cc2c[nH]cn2)NC(=O)[C@H]([C@@H](C)O)NC(=O)[C@H](CCCNC(=N)N)NC(=O)[C@H](CO)NC3=O)NC(=O)[C@H](CCCCN)NC(=O)[C@H](CC(=O)O)NC(=O)[C@H](CC(N)=O)NC(=O)[C@H](CC(=O)O)NC(=O)[C@@H]2CCCN2C1=O` [[SDMA7]GpTx-1(1-34)], the IC50 at hNav1.7 [2] (setting [9]) came to 0.24 µM; at hNav1.5 [3] (setting [10]), 10.3 µM; at hNav1.3 [4] (use-dependent block, hNav1.3), 0.12 µM; at hNav1.7 [5], 0.006 µM; on hNav1.5 [6], 14 µM.

Source of the values: patent publication US9340590B2 (priority 2011, dated 2016).
